For the assay, the system named is BDF1 mice, P388 leukemia ip, median survival T/C. The assay is described as follows: NCI In Vivo Anticancer Drug Screen. Data for tumor model P388 Leukemia (intraperitoneal) in B6D2F1 (BDF1) mice. The note with it: endpoint: median survival time, higher = longer survival. A digest of the protocol:
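In tumour-bearing mice, survival after compound treatment is set against the vehicle group and given as a quotient.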

Where [1] appears, read: dose: 50.0 mg/kg/injection, schedule: Q01DX009 (ip), vehicle: saline with Tween-80.
Where [2] appears, read: dose: 100.0 mg/kg/injection, schedule: Q01DX009 (ip), vehicle: saline with Tween-80.
The mark [3] stands for this setting: dose: 200.0 mg/kg/injection, schedule: Q01DX009 (ip), vehicle: saline with Tween-80.
The mark [4] stands for this setting: dose: 50.0 mg/kg/injection, schedule: Q04DX003 (ip), vehicle: saline with Tween-80.
Setting [5] is: dose: 100.0 mg/kg/injection, schedule: Q04DX003 (ip), vehicle: saline with Tween-80.
The mark [6] stands for this setting: dose: 200.0 mg/kg/injection, schedule: Q04DX003 (ip), vehicle: saline with Tween-80.
[7] abbreviates: dose: 100.0 mg/kg/injection, schedule: Q04DX003 (ip), vehicle: Klucel (hydroxypropylcellulose) (HPC).
The mark [8] stands for this setting: dose: 200.0 mg/kg/injection, schedule: Q04DX003 (ip), vehicle: Klucel (hydroxypropylcellulose) (HPC).
Setting [9] is: dose: 400.0 mg/kg/injection, schedule: Q04DX003 (ip), vehicle: Klucel (hydroxypropylcellulose) (HPC).
[10] abbreviates: dose: 50.0 mg/kg/injection, schedule: Q01DX009 (ip), vehicle: saline.
Where [11] appears, read: dose: 100.0 mg/kg/injection, schedule: Q01DX009 (ip), vehicle: saline.
Setting [12] is: dose: 25.0 mg/kg/injection, schedule: Q01DX009 (ip), vehicle: saline.
Setting [13] is: dose: 25.0 mg/kg/injection, schedule: Q01DX009 (ip), vehicle: saline with Tween-80.
Where [14] appears, read: dose: 400.0 mg/kg/injection, schedule: Q04DX003 (ip), vehicle: saline with Tween-80.
The mark [15] stands for this setting: dose: 12.5 mg/kg/injection, schedule: Q01DX009 (ip), vehicle: Klucel (hydroxypropylcellulose) (HPC).
The mark [16] stands for this setting: dose: 25.0 mg/kg/injection, schedule: Q01DX009 (ip), vehicle: Klucel (hydroxypropylcellulose) (HPC).

Several values for one entry are separate records, joined by “and”; a condition that tells them apart may be missing. Identical values can stand only once. Toxic doses and inconclusive results are not listed.

The text below walks through data of PubChem BioAssay AID328 (DTP/NCI, 2004).

On to `COc1cc2c(cc1OC)C(CNC(=O)/C=C/c1cc(OC)c(OC)c(OC)c1)C2` (centres undefined), for which the T/C under setting [1] is 98 % of control, the T/C under setting [2] is 107 % of control and the T/C under setting [3] is 88 % of control.

In the case of `Nc1c2ccccc2cc2ccccc12`, the T/C under setting [1] is 108 % of control; the T/C under setting [4] is 108 % of control; the T/C under setting [2] is 108 % of control; the T/C under setting [5] is 95 % of control; the T/C under setting [3] is 113 % of control; the T/C under setting [6] is 91 % of control.

`O=C1c2ccccc2C(=O)N1CN1CCN(c2ccc(F)cc2)CC1`: the T/C runs as follows: (dose: 50.0 mg/kg/injection, schedule: Q01DX005 (ip), vehicle: saline with Tween-80) 103 % of control; (dose: 100.0 mg/kg/injection, schedule: Q01DX005 (ip), vehicle: saline with Tween-80) 94 % of control; (dose: 200.0 mg/kg/injection, schedule: Q01DX005 (ip), vehicle: saline with Tween-80) 103 % of control.

For the compound `COc1cc(C)ccc1C(=O)c1ccc(C)cc1OC`, the T/C is, setting by setting: under setting [7], 90 % of control; under setting [8], 90 % of control; under setting [9], 109 % of control.

`C=CCC(CC)C(=O)O` (centres undefined): the T/C reads like this: under setting [10], 100 % of control; under setting [11], 104 % of control.

For the compound `C=C1C(=O)OC(C)(C)C1(C)C`, the T/C by setting is: (dose: 12.5 mg/kg/injection, schedule: Q01DX009 (ip), vehicle: saline) 105 % of control; under setting [12], 98 % of control; under setting [10], 86 % of control and 88 % of control.

Regarding `Cc1cc(N(C)C)c2ccc3cc4ccccc4cc3c2n1`, the T/C is, setting by setting: under setting [13], 95 % of control; under setting [1], 95 % of control and 114 % of control; under setting [2], 92 % of control and 121 % of control.

With `S=C(S)Nc1cccc2ccccc12`, the T/C runs as follows: under setting [2], 100 % of control; under setting [5], 90 % of control; under setting [3], 100 % of control; under setting [6], 109 % of control; (dose: 400.0 mg/kg/injection, schedule: Q01DX009 (ip), vehicle: saline with Tween-80) 105 % of control; under setting [14], 95 % of control.

For `COc1ccc(/C=C(\C)[N+](=O)[O-])cc1OC`, the T/C is 116 % of control (dose: 3.13 mg/kg/injection, schedule: Q01DX009 (ip), vehicle: other); 116 % of control (dose: 6.25 mg/kg/injection, schedule: Q01DX009 (ip), vehicle: other); 110 % of control (dose: 12.5 mg/kg/injection, schedule: Q01DX009 (ip), vehicle: other); 118 % of control (dose: 25.0 mg/kg/injection, schedule: Q01DX009 (ip), vehicle: other).

Regarding `O=NN(CCCl)C(=O)NC1CC2CCC1C2` (centres undefined), the T/C is 272 % of control (dose: 33.0 mg/kg/injection, schedule: Q04DX003 (ip), vehicle: saline with Tween-80) and 113 % of control (dose: 75.0 mg/kg/injection, schedule: Q04DX003 (ip), vehicle: saline with Tween-80).

For the compound `O/N=C(\c1ccccc1)C(c1ccccc1)C(Cl)(Cl)Cl` (centres undefined), the T/C is 100 % of control under setting [7], 100 % of control under setting [8] and 100 % of control under setting [9].

`CCCC[S+](CCCC)CC(=O)c1ccc(-c2ccccc2)cc1`: the T/C is, setting by setting: (dose: 1.56 mg/kg/injection, schedule: Q01DX009 (ip), vehicle: saline with Tween-80) 105 % of control; (dose: 3.13 mg/kg/injection, schedule: Q01DX009 (ip), vehicle: saline with Tween-80) 100 % of control; (dose: 6.25 mg/kg/injection, schedule: Q01DX009 (ip), vehicle: saline with Tween-80) 106 % of control; (dose: 12.5 mg/kg/injection, schedule: Q01DX009 (ip), vehicle: saline with Tween-80) 107 % of control; under setting [13], 113 % of control.

`O=C(NNc1ccccc1)OCc1ccccc1`: the T/C reads like this: under setting [15], 100 % of control; under setting [16], 115 % of control; (dose: 50.0 mg/kg/injection, schedule: Q01DX009 (ip), vehicle: Klucel (hydroxypropylcellulose) (HPC)) 110 % of control; (dose: 75.0 mg/kg/injection, schedule: Q04DX003 (ip), vehicle: Klucel (hydroxypropylcellulose) (HPC)) 95 % of control; (dose: 150.0 mg/kg/injection, schedule: Q04DX003 (ip), vehicle: Klucel (hydroxypropylcellulose) (HPC)) 100 % of control; (dose: 300.0 mg/kg/injection, schedule: Q04DX003 (ip), vehicle: Klucel (hydroxypropylcellulose) (HPC)) 90 % of control.

Consider `CC1=C2CC[C@H]3[C@@H]4CC[C@H](O)[C@@]4(C)CC[C@@H]3[C@@]2(C)CCC1=O`, for which the T/C is 95 % of control under setting [5], 95 % of control under setting [6] and 100 % of control under setting [14].

For `COc1cc(OC)cc(C(N)=O)c1`, the T/C runs as follows: (dose: 50.0 mg/kg/injection, schedule: Q04DX003 (ip), vehicle: Klucel (hydroxypropylcellulose) (HPC)) 100 % of control; under setting [7], 95 % of control; under setting [8], 100 % of control.

For `COc1ccc2nonc2c1`, the T/C by setting is: under setting [13], 102 % of control; under setting [1], 93 % of control; under setting [2], 90 % of control; under setting [3], 106 % of control.

For the compound `c1ccc(CCN2CCC(CCc3c[nH]c4ccccc34)CC2)cc1`, the T/C was 100 % of control (dose: 12.5 mg/kg/injection, schedule: Q01DX010 (ip), vehicle: saline); 109 % of control (dose: 25.0 mg/kg/injection, schedule: Q01DX010 (ip), vehicle: saline); 122 % of control (dose: 50.0 mg/kg/injection, schedule: Q01DX010 (ip), vehicle: saline); 114 % of control (dose: 100.0 mg/kg/injection, schedule: Q01DX010 (ip), vehicle: saline).

Turning to `CCOc1ccc(/C=N\N=C\c2ccc(OCC)cc2)cc1`, the T/C is, setting by setting: under setting [15], 100 % of control; under setting [16], 96 % of control; under setting [7], 109 % of control; under setting [8], 90 % of control; under setting [9], 90 % of control.

As to `CN(C)CCC12CC(=O)CCC1C=Cc1ccc(O)c(O)c12` (centres undefined), the T/C runs as follows: under setting [12], 100 % of control; under setting [10], 95 % of control; under setting [11], 91 % of control.

As to `c1ccc(C[P+](c2ccccc2)(c2ccccc2)c2ccccc2)cc1`, the T/C runs as follows: (dose: 3.13 mg/kg/injection, schedule: Q01DX009 (ip), vehicle: Klucel (hydroxypropylcellulose) (HPC)) 104 % of control; (dose: 3.13 mg/kg/injection, schedule: Q04DX003 (ip), vehicle: Klucel (hydroxypropylcellulose) (HPC)) 104 % of control; (dose: 6.25 mg/kg/injection, schedule: Q01DX009 (ip), vehicle: Klucel (hydroxypropylcellulose) (HPC)) 118 % of control; (dose: 6.25 mg/kg/injection, schedule: Q04DX003 (ip), vehicle: Klucel (hydroxypropylcellulose) (HPC)) 113 % of control; (dose: 12.5 mg/kg/injection, schedule: Q04DX003 (ip), vehicle: Klucel (hydroxypropylcellulose) (HPC)) 118 % of control.

On to `Cc1ccc(NC(=O)Nc2ccccc2C(F)(F)F)cc1NC(=O)Nc1ccccc1C(F)(F)F`, for which the T/C was 100 % of control under setting [5], 100 % of control under setting [6] and 104 % of control under setting [14].

Take `CC(C)NC(=O)c1ccccc1S(=O)c1ccccc1` (centres undefined): the T/C (dose: 100.0 mg/kg/injection, schedule: Q01DX001 (ip), vehicle: saline with Tween-80) is 100 % of control; the T/C (dose: 200.0 mg/kg/injection, schedule: Q01DX001 (ip), vehicle: saline with Tween-80) was 101 % of control; the T/C (dose: 400.0 mg/kg/injection, schedule: Q01DX001 (ip), vehicle: saline with Tween-80) is 92 % of control.

Consider `CC1CCCC(CN=Cc2cc([N+](=O)[O-])ccc2O)[N-]1.CC1CCCC(CN=Cc2cc([N+](=O)[O-])ccc2O)[N-]1.[Ni+2]` (centres undefined), for which the T/C is, setting by setting: (dose: 12.5 mg/kg/injection, schedule: Q04DX003 (ip), vehicle: saline with Tween-80) 100 % of control; (dose: 25.0 mg/kg/injection, schedule: Q04DX003 (ip), vehicle: saline with Tween-80) 100 % of control; under setting [4], 100 % of control.

In the case of `CC(C)CCCC(C)C1CCC2C3CC=C4CC(S[As](C)C)CCC4(C)C3CCC12C` (centres undefined), the T/C under setting [1] is 98 % of control, the T/C under setting [2] is 95 % of control and the T/C under setting [3] is 98 % of control.

Turning to `C=C1C(=O)O[C@@H]2/C=C(\CO)CC/C=C(\C)C[C@H](OC(=O)C(C)CO)[C@@H]12` (some centres undefined), the T/C (dose: 2.75 mg/kg/injection, schedule: Q01DX009 (ip), vehicle: alcohol) was 118 % of control.
